# Biological target: T1, GST-tagged truncated human mutant G2019S LRRK2 (Homo sapiens, UniProt Q5S007, G2019S)
# T1 construct: GST-tagged truncated human mutant G2019S LRRK2; purchased Life Technologies Corporation (Carlsbad, CA)
# Experiment: LRRK2 G2019S Km ATP LanthaScreen assay
# Type: biochemical
# Details: 134 μM ATP (Km ATP), LRRKtide substrate, mean of several tests, read-out: LRRK2 pIC50 (converted)
# Summary of the method: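 GST-tagged truncated human LRRK2 G2019S (1.25 nM enzyme solution) was preincubated 15 min with compound, then reacted 90 min at ambient temperature with fluorescein-LRRKtide (400 nM solution) and 134 μM ATP (Km) in Tris pH 8.5. EDTA stop; Tb anti-phospho-LRRKtide TR-FRET (520/495 ratio). IC50 from 4-parameter fits, mean of several runs.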
# T1 sequence (Q5S007 970-2527 G2019S limits assumed): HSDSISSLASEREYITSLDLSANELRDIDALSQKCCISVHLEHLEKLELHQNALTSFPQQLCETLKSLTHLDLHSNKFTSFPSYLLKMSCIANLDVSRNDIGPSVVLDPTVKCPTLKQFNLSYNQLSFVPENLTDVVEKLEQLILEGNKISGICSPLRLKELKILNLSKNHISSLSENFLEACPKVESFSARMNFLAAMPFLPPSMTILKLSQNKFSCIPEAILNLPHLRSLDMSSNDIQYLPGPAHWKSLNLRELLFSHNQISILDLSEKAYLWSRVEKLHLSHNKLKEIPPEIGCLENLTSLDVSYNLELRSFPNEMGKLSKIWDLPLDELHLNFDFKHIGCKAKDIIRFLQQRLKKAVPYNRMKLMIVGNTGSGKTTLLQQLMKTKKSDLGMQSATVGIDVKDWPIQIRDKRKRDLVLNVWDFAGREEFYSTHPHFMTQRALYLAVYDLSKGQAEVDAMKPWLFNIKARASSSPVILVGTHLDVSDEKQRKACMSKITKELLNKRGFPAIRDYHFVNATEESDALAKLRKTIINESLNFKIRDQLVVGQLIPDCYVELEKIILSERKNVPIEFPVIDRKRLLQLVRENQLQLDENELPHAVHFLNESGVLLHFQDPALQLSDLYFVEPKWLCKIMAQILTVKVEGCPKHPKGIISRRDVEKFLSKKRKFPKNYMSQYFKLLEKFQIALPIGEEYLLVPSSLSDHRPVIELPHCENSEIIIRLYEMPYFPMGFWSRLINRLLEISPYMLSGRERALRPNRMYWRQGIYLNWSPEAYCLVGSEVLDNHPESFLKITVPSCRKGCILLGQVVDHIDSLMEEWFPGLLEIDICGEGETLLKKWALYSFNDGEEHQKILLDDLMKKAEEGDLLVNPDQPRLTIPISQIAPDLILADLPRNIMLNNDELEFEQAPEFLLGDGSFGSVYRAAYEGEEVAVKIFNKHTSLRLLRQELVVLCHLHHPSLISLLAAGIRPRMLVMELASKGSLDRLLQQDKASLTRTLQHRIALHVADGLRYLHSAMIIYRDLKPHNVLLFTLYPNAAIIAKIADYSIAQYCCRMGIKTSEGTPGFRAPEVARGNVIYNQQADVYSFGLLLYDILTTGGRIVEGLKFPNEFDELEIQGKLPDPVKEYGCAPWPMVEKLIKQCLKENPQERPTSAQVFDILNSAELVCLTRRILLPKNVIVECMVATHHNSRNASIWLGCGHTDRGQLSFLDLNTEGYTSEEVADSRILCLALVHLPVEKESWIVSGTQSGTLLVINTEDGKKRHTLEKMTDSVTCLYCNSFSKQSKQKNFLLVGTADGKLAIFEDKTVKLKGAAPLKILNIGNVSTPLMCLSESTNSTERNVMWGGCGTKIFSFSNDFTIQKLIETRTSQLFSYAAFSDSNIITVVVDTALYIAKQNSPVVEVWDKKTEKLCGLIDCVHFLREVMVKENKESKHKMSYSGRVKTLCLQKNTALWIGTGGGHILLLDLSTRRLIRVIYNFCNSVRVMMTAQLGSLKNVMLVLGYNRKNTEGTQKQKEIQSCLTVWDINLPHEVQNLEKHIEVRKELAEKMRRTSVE
row,Structure (SMILES),IC50 [nM]
1,"Cc1cc2cnc(NC(=O)C3C(C)C3c3cnn(C)c3)cc2cc1N1CCN(C2(C)CCOC2)CC1 (single isomer, unassigned) [Ex-9.12]",0.0813
2,"Cc1cc2cnc(NC(=O)C3C(C)C3c3cnn(C)c3)cc2cc1N1CCN(C2(C)CCOC2)CC1 (single isomer, unassigned) [Ex-9.13]",11.5
3,"Cc1cc2cnc(NC(=O)C3C(C)C3c3cnn(C)c3)cc2cc1N1CCN(C2(C)CCOC2)CC1 (single isomer, unassigned) [Ex-9.14]",0.0813
4,"Cc1cc2cnc(NC(=O)C3C(C)C3c3cnn(C)c3)cc2cc1N1CCN(C2(C)CCOC2)CC1 (single isomer, unassigned) [Ex-9.15]",0.316
5,"Cc1cc2cnc(NC(=O)C3CC3c3ccccn3)cc2cc1N1CCN(C2(C)CCOC2)CC1 (single isomer, unassigned) [Ex-9.16]",1.12
6,"Cc1cc2cnc(NC(=O)C3CC3c3ccccn3)cc2cc1N1CCN(C2(C)CCOC2)CC1 (single isomer, unassigned) [Ex-9.17]",1.29
7,"Cc1cc2cnc(NC(=O)C3CC3c3ccccn3)cc2cc1N1CCN(C2(C)CCOC2)CC1 (single isomer, unassigned) [Ex-9.18]",100
8,"CC1(N2CCN(c3cc4cc(NC(=O)C5CCC(F)(F)CO5)ncc4cc3Cl)CC2)COCC1O (single isomer, unassigned) [Ex-10.1, (2R or 2S)-N-(7-chloro-6-((3R, 4R or 3S, 4S)-4-(4-hydroxy-3-methyltetrahydrofuran-3-yl)piperazin-1-yl)isoquinolin-3-yl)-5,5-difluorotetrahydro-2H-pyran-2-carboxamide]",0.933
9,"CC1(N2CCN(c3cc4cc(NC(=O)C5CCC(F)(F)CO5)ncc4cc3Cl)CC2)COCC1O (single isomer, unassigned) [Ex-10.2, (2R or 2S)-N-(7-chloro-6-((3R, 4R or 3S, 4S)-4-(4-hydroxy-3-methyltetrahydrofuran-3-yl)piperazin-1-yl)isoquinolin-3-yl)-5,5-difluorotetrahydro-2H-pyran-2-carboxamide]",0.676
10,"CC1(N2CCN(c3cc4cc(NC(=O)C5CCCOC5)ncc4cc3Cl)CC2)COCC1O (single isomer, unassigned) [Ex-10.3, (3R or 3S)-N-(7-chloro-6-(4-((3R, 4R or 3S, 4S)-4-hydroxy-3-methyltetrahydrofuran-3-yl)piperazin-1-yl)isoquinolin-3-yl)tetrahydro-2H-pyran-3-carboxamide]",1.58
11,"CC1(N2CCN(c3cc4cc(NC(=O)C5CCCOC5)ncc4cc3Cl)CC2)COCC1O (single isomer, unassigned) [Ex-10.4, (3R or 3S)-N-(7-chloro-6-(4-((3R, 4R or 3S, 4S)-4-hydroxy-3-methyltetrahydrofuran-3-yl)piperazin-1-yl)isoquinolin-3-yl)tetrahydro-2H-pyran-3-carboxamide]",1.38
12,"CC(C)(O)C1CC1C(=O)Nc1cc2cc(N3CCN(C4(C)COCC4O)CC3)c(Cl)cc2cn1 (single isomer, unassigned) [Ex-10.5]",4.79
13,"CC(C)(O)C1CC1C(=O)Nc1cc2cc(N3CCN(C4(C)COCC4O)CC3)c(Cl)cc2cn1 (single isomer, unassigned) [Ex-10.6]",0.141
14,"CCOC1CC1C(=O)Nc1cc2cc(N3CCN(C4(C)COCC4O)CC3)c(Cl)cc2cn1 (single isomer, unassigned) [Ex-10.11]",0.851
15,"CCOC1CC1C(=O)Nc1cc2cc(N3CCN(C4(C)COCC4O)CC3)c(Cl)cc2cn1 (single isomer, unassigned) [Ex-10.12]",0.0832
16,"CC1(N2CCN(c3cc4cc(NC(=O)C5CC5c5cccs5)ncc4cc3Cl)CC2)COCC1O (single isomer, unassigned) [Ex-10.13, (1R,2R or 1R,2S)-N-[7-chloro-6-[4-((3R,4R or 3S,4S)-4-hydroxy-3-methyl-tetrahydrofuran-3-yl)piperazin-1-yl]-3-isoquinolyl]-2-(2-thienyl)cyclopropanecarboxamide]",0.0813
17,"CC1(N2CCN(c3cc4cc(NC(=O)C5CC5c5cccs5)ncc4cc3Cl)CC2)COCC1O (single isomer, unassigned) [Ex-10.14, (1R,2R or 1R,2S)-N-[7-chloro-6-[4-((3R,4R or 3S,4S)-4-hydroxy-3-methyl-tetrahydrofuran-3-yl)piperazin-1-yl]-3-isoquinolyl]-2-(2-thienyl)cyclopropanecarboxamide]",4.27
18,"CC1C(C(=O)Nc2cc3cc(N4CCN(C5(C)COCC5F)CC4)c(Cl)cc3cn2)C1c1ccn(C)n1 (single isomer, unassigned) [Ex-10.15]",1.17
19,"CC1C(C(=O)Nc2cc3cc(N4CCN(C5(C)COCC5F)CC4)c(Cl)cc3cn2)C1c1ccn(C)n1 (single isomer, unassigned) [Ex-10.16]",7.94
20,"Cn1ccc(C2CC2C(=O)Nc2cc3cc(N4CCN(C5(C)COCC5F)CC4)c(Cl)cc3cn2)n1 (single isomer, unassigned) [Ex-10.17, (1R,2R or 1S,2S)-N-[7-chloro-6-[4-((3R,4R or 3S,4S)-4-fluoro-3-methyl-tetrahydrofuran-3-yl)piperazin-1-yl]-3-isoquinolyl]-2-(1-methylpyrazol-3-yl)cyclopropanecarboxamide]",2.75
21,"Cn1ccc(C2CC2C(=O)Nc2cc3cc(N4CCN(C5(C)COCC5F)CC4)c(Cl)cc3cn2)n1 (single isomer, unassigned) [Ex-10.18, (1R,2R or 1S,2S)-N-[7-chloro-6-[4-((3R,4R or 3S,4S)-4-fluoro-3-methyl-tetrahydrofuran-3-yl)piperazin-1-yl]-3-isoquinolyl]-2-(1-methylpyrazol-3-yl)cyclopropanecarboxamide]",8.71
22,"CC(C)Cn1nccc1C1CC1C(=O)Nc1cc2cc(N3CCN(C4(C)COCC4O)CC3)c(Cl)cc2cn1 (single isomer, unassigned) [Ex-10.19, (1R,2R or 1S,2S)-N-[7-chloro-6-[4-((3R,4R or 3S,4S)-4-hydroxy-3-methyl-tetrahydrofuran-3-yl)piperazin-1-yl]-3-isoquinolyl]-2-(2-isobutylpyrazol-3-yl)cyclopropanecarboxamide]",42.7
23,"CC(C)Cn1nccc1C1CC1C(=O)Nc1cc2cc(N3CCN(C4(C)COCC4O)CC3)c(Cl)cc2cn1 (single isomer, unassigned) [Ex-10.20, (1R,2R or 1S,2S)-N-[7-chloro-6-[4-((3R,4R or 3S,4S)-4-hydroxy-3-methyl-tetrahydrofuran-3-yl)piperazin-1-yl]-3-isoquinolyl]-2-(2-isobutylpyrazol-3-yl)cyclopropanecarboxamide]",2.24
24,"CC(C)n1nccc1C1CC1C(=O)Nc1cc2cc(N3CCN(C4(C)COCC4O)CC3)c(Cl)cc2cn1 (single isomer, unassigned) [Ex-10.21, (1R,2R or 1S,2S)-N-[7-chloro-6-[4-((3R,4R or 3S,4S)-4-hydroxy-3-methyl-tetrahydrofuran-3-yl)piperazin-1-yl]-3-isoquinolyl]-2-(2-isopropylpyrazol-3-yl)cyclopropanecarboxamide]",44.7
25,"CC(C)n1nccc1C1CC1C(=O)Nc1cc2cc(N3CCN(C4(C)COCC4O)CC3)c(Cl)cc2cn1 (single isomer, unassigned) [Ex-10.22, (1R,2R or 1S,2S)-N-[7-chloro-6-[4-((3R,4R or 3S,4S)-4-hydroxy-3-methyl-tetrahydrofuran-3-yl)piperazin-1-yl]-3-isoquinolyl]-2-(2-isopropylpyrazol-3-yl)cyclopropanecarboxamide]",2.69
26,"CCOC1CC2(C1)CC2C(=O)Nc1cc2cc(N3CCN(C4(C)COCC4F)CC3)c(Cl)cc2cn1 (single isomer, unassigned) [Ex-10.23, (1R,2R or 1S,2S)-N-[7-chloro-6-[4-((3R,4R or 3S,4S)-4-fluoro-3-methyl-tetrahydrofuran-3-yl)piperazin-1-yl]-3-isoquinolyl]-5-ethoxy-spiro[2.3]hexane-2-carboxamide]",0.724
27,"CCOC1CC2(C1)CC2C(=O)Nc1cc2cc(N3CCN(C4(C)COCC4F)CC3)c(Cl)cc2cn1 (single isomer, unassigned) [Ex-10.24, (1R,2R or 1S,2S)-N-[7-chloro-6-[4-((3R,4R or 3S,4S)-4-fluoro-3-methyl-tetrahydrofuran-3-yl)piperazin-1-yl]-3-isoquinolyl]-5-ethoxy-spiro[2.3]hexane-2-carboxamide]",0.0813
28,"Cn1ncc(C2CC2C(=O)Nc2cc3cc(N4CCN(C5(C)CCOC5)CC4)c(Cl)cc3cn2)c1C(F)(F)F (single isomer, unassigned) [Ex-10.25, (1R,2R or 1S,2S)-N-[7-chloro-6-[4-((R or S)-3-methyltetrahydrofuran-3-yl)piperazin-4-ium-1-yl]-3-isoquinolyl]-2-[1-methyl-5-(trifluoromethyl)pyrazol-4-yl]cyclopropanecarboxamide]",3.72
29,"Cn1ncc(C2CC2C(=O)Nc2cc3cc(N4CCN(C5(C)CCOC5)CC4)c(Cl)cc3cn2)c1C(F)(F)F (single isomer, unassigned) [Ex-10.26, (1R,2R or 1S,2S)-N-[7-chloro-6-[4-((R or S)-3-methyltetrahydrofuran-3-yl)piperazin-4-ium-1-yl]-3-isoquinolyl]-2-[1-methyl-5-(trifluoromethyl)pyrazol-4-yl]cyclopropanecarboxamide]",525
30,"Cn1ncc(C2CC2C(=O)Nc2cc3cc(N4CCN(C5(C)CCOC5)CC4)c(Cl)cc3cn2)c1C(F)(F)F (single isomer, unassigned) [Ex-10.27, (1R,2R or 1S,2S)-N-[7-chloro-6-[4-((R or S)-3-methyltetrahydrofuran-3-yl)piperazin-4-ium-1-yl]-3-isoquinolyl]-2-[1-methyl-5-(trifluoromethyl)pyrazol-4-yl]cyclopropanecarboxamide]",38

# Source: patent publication US12516039B2, “N-linked isoquinoline amides as LRRK2 inhibitors, pharmaceutical compositions, and uses thereof” (Merck Sharp & Dohme LLC, priority 2020, dated 2026)
